# Measurements taken from publication PMC6877910, “Astrocyte-Targeted Transporter-Utilizing Derivatives of Ferulic Acid Can Have Multifunctional Effects Ameliorating Inflammation and Oxidative Stress in the Brain” (Oxidative Medicine and Cellular Longevity, 2019).
# Legend:
# [1] = 5 h incubation in vitro; previous study; cited from earlier work
# [2] = cited from earlier work
# [3] = Bioconversion in mouse brain S9 subcellular fraction; assay type: in vitro ADME
# NF-κB = assay: Total amount of NF-κB p65 (ELISA) in cells; assay type: cell-based, mouse; details: 100 μM; 24-96 h incubation
# Experimental: Enzyme-Linked Immunosorbent Assay (ELISA) kits were used (mTOR SimpleStep ELISA Kit and NFκB p65 Total SimpeStep ELISA Kit, Abcam, Cambridge, UK) to quantify mammalian (or mechanistic) target of rapamycin (mTOR) and transcription factor NF-κB amounts, respectively. […] The control wells were treated with the solvent only (0.5% DMSO). Cells were solubilized using the provided extraction buffer with the kit, incubated on ice for 20 minutes and centrifuged at 18 000 × g for 20 min at 4°C. The supernatants were stored at -80°C till the day of the analysis. Standards and samples were then analyzed following the manufacturer's protocol (ELISA sandwich method) and by reading the absorbance with the EnVision plate reader (EnVision, PerkinElmer, Inc., Waltham, MA, USA) at 450 nm. The results were analyzed as pmol of formed mTOR or NF-κB per mL.
# [4] = system: LPS-induced lipid peroxidation in primary astrocytes; assay: LPS-induced lipid peroxidation (malondialdehyde formation) in primary astrocytes; assay type: cell-based, mouse; details: 50 μM compound with 0.1 μg/mL LPS, 24 h
# Experimental: Primary astrocytes were seeded at the density of 2 × 10^5 cells/well onto collagen-coated 6-well plates. The cells were used for the experiments 2 days after seeding, and first, they were treated with 0.1 μg/mL lipopolysaccharide (LPS) in prewarmed HBSS buffer (250 μL) at 37°C for 24 h. The control cells were treated with prewarmed HBSS buffer only. The ability of compound to inhibit the oxidative stress was evaluated by adding FA (50 μM) or its derivatives 1-3 in prewarmed HBSS buffer (250 μL) together with LPS and incubating the cells at 37°C for 24 h. Tocopherol (vitamin E) was used as a positive control. […] The mixtures were then centrifuged at 10 000 × g for 10 min, and 50 μL of the supernatant was analyzed on a 96-well plate, each experiment as three technical replicates from three biological replicates. The fluorescence was read by the EnVision plate reader (EnVision, PerkinElmer, Inc., Waltham, MA, USA) at λex 532 nm and λem 553 nm. The amount of produced malondialdehyde (MDA) in each experiment was quantified from the standard curve; various amounts (1-800 μM) of MDA and thiobarbituric acid in water were incubated in a thermoshaker at 95°C for 1 h and analyzed simultaneously as duplicates with each studied batch. […] The results were analyzed as μmol of formed MDA per mg protein.
# [5] = system: peroxidase activity of cyclooxygenases (COX); assay: Peroxidase activity of cyclooxygenases in cell lysates (fluorometric kit); assay type: biochemical; details: 100 μM; 30 min; assay does not differentiate COX from LOX
# Experimental: A coupled oxidation-reduction fluorometric assay was used to assess the inhibitory effect of compounds (100 μM) together with positive controls on the peroxidase activity of cyclooxygenases (COX) (ab204699 Cyclooxygenase Activity Assay Kit, Abcam, Cambridge, UK). The method has been done and validated according to the manufacturer's protocol. Briefly, studied compounds (100 μM) and the reaction mixture were incubated with the cell lysates at room temperature and the reaction was initiated by adding arachidonic acid/NaOH solution. The fluorescence was read in a kinetic mode after every 15 seconds for 30 minutes by the EnVision plate reader (EnVision, PerkinElmer, Inc., Waltham, MA, USA) at λex 535 nm and λem 587 nm.
compound,measurement,setting,value
COc1cc(C=CC(=O)NCc2cccc(CC(N)C(=O)O)c2)ccc1O (stereo not drawn) [FA-derivative 1],FA released / stability in mouse brain S9 subcellular fraction,[1],remained intact
COc1cc(C=CC(=O)Oc2cccc(CC(N)C(=O)O)c2)ccc1O (stereo not drawn) [FA-derivative 3],Bioconversion in human plasma,[2]; in vitro human data,rather insignificant
same,"Human hepatic intrinsic clearance, times slower than in mouse",[2]; in vitro human data,10 times
same,"Stability in human plasma and liver S9 subcellular fraction, times more stable (than in mouse)",[2]; previous study,10 times
same,Bioconversion in the presence of donepezil,[3],no bioconversion at all was observed
same,half-life,[3],~215 min
COc1cc(C=CC(=O)Nc2cccc(CC(N)C(=O)O)c2)ccc1O (stereo not drawn) [FA-derivative 2],Effect on total NF-κB levels,NF-κB,did not exert any effects
same,MDA levels lower than in the control incubation,[4],approximately 12%
"COc1cc(/C=C/C(=O)O)ccc1O [FA, trans-4-hydroxy-3-methoxycinnamic acid, reference compound]",Inhibition of peroxidase activity of COX enzymes,[5],inhibited the cellular peroxidase activity of COX enzymes
